Ends that are not written are not given here.

The data set can be described thus: Detection of KDIP and truncated forms in tumour and liver tissue by LC-MS/MS (MRM) after intravenous injection. The class given is in vivo, mouse. The note with it: tissues collected 20 min after fifth intravenous injection of KDIP 5 mg/kg, below the limit of detection. On the procedure:
At 20 min after fifth intravenous injection of KDIP, tumour and liver tissues were collected, immediately frozen using liquid nitrogen and ground with a pestle and mortar. One part of resultant powder by weight was homogenized with two parts of lysis buffer containing 8‐M urea, 25‐mM Tris–HCl (pH 8.5) by volume and was placed in Eppendorf tubes. This lysate was sonicated three times for 2 s with 2‐s intervals of rest at 20% amplitude on ice. Insoluble debris was removed by obtaining supernatant after centrifugation at 14 000 g, 4°C for 15 min.
Peptide extraction from serum or tissue lysate was performed by solid‐phase extraction using Oasis HLB Cartridge 1‐cm^3 (30 mg). HLB cartridges were conditioned using ACN (1 ml) and 50% ACN, .5% FA (1 ml), followed by equilibration using .5% FA (2 ml). A volume of 10‐μl serum and 20 μl of tissue lysate were added by .5% FA to be 1 ml and were loaded on equilibrated cartridges. Cartridges were washed with .5% FA (3 ml), and then peptide was eluted by 50% ACN, .5% FA (500 μl). Eluates were vacuum‐dried using Speed‐Vac and were stored at −80°C until use. Dried samples were reconstituted in .5% FA 50 and 5 μl of sample was loaded on column for LC–MS/MS analysis.
Each sample was analysed using an Agilent 1100 Series high‐performance liquid chromatography pump (Agilent Technologies, USA) coupled to an LTQ linear ion trap mass spectrometer (Thermo Finnigan, USA). Separation of peptide was carried out on a homemade C18‐fused silica column (100‐μm internal diameter) with nano‐electrospray ionization interface. […] Peptide was quantified by multiple reaction monitoring (MRM) in positive ion mode, with a spray voltage of 2.3 kV. […] Furthermore, truncated forms ([…], […]) of KDIP that were detected during stability test were also analysed by following transitions: 468.5 → 404.8 (b16 ^+5), 468.5 → 444.85 (b18 ^+5), 468.5 → 505.7 (b16 ^+4), 468.5 → 551.35 (b18 + H2O^+4), 468.5 → 555.7 (b18 ^+4), 528.45 → 448.85 (b14 ^+4), 528.45 → 499.0 (b16 ^+4), 528.45 → 598.15 (b14 ^+3), 528.45 → 659.25 (b16 + H2O^+3) and 528.45 → 664.95 (b16 ^+3). […]

On to YARVRRRGPRRWRLVSDEAV [KDIP], for which the “detection in regressed tumour tissues or liver by mass spectrometry” value is “not detected”.

Values taken from PMC9296036, “A peptide interfering with the dimerization of oncogenic KITENIN protein and its stability suppresses colorectal tumour progression” (Clinical and Translational Medicine, 2022).
